Laboratory results from patent publication US20240382465A1, “AROMATIC ACETYLENE DERIVATIVE, AND PREPARATION METHOD THEREFOR AND USE THEREOF” (priority 2021, published 2024).
In brackets after ≈: the same amount, converted by molar mass. Read-outs that look alike come from different tables or passages of the source.

Legend:
[1] = target: recombinant Pseudomonas aeruginosa LpxC (Pseudomonas aeruginosa (strain ATCC 15692 / DSM 22644 / CIP 104116 / JCM 14847 / LMG 12228 / 1C / PRS 101 / PAO1), UniProt P47205); assay: Inhibition of LpxC enzymatic activity (fluorescamine assay); type: biochemical
Method: The degree of inhibition of the enzymatic activity of recombinant Pseudomonas aeruginosa LpxC by the compounds of the present disclosure under in vitro conditions was determined using the following method.
The experimental procedure is briefly described as follows: The test compound was first dissolved in DMSO to prepare a 10 mM stock solution. The reaction was carried out in a 96-well microplate. First, 20 μL of recombinant Pseudomonas aeruginosa LpxC (purchased from Signalway Antibody, product number AP74647-2) was added to each well, with a final concentration of 5 nM. 5 μL of the compound to be tested was then added, and the compound was diluted 4 times to 8 concentration points with a concentration range of 0.61-10,000 nM. 5 μL of LpxC substrate UDP-3-O—(R-3-hydroxydecanoyl)-GlcNAc (purchased from Biosynth Carbosynth, product number: mu75071) was added, with a final concentration of the substrate of 10 μM. The plate was incubated at 25° C. for 120 minutes. Then 20 μL of 2.0 mg/mL fluorescamine (purchased from sigmaaldrich, product number: F9015, solvent: 1:1 dimethylformamide/acetonitrile) was added to the reaction system, and mixed well for 10 minutes of reaction. Finally, 50 μL of 200 mM sodium phosphate buffer (pH 8.0) was added to terminate the reaction. Reading was carried out using a microplate reader (BMG), and the excitation and emission wavelengths were 390 and 495 nm respectively. By comparing with the fluorescence intensity ratio of the control group ([…]), the percentage inhibition rate of the compound at each concentration was calculated.

[2] = system: E. coli ATCC 25922; assay: Antibacterial activity, MIC by broth microdilution (CLSI); type: cell-based; conditions: Escherichia coli, ATCC25922; E. coli ATCC 25922, 35° C., 18 to 24 hours; read-out: MIC(E. coli)
Method: The in vitro minimum inhibitory concentration (MIC) was determined in accordance with the CLSI guidelines, and was measured using the broth microdilution method.
The experimental process is briefly described as follows: The test compound was dissolved in DMSO to prepare a […] stock solution, which was then prepared into 11 twice-diluted 100× high-concentration working solutions (the final concentration of the system was 64 μg/mL-0.06 μg/mL) using DMSO. The strains (K. pneumoniae ATCC13883 and E. coli ATCC 25922) frozen in −80° C. glycerol were inoculated into solid agar medium, placed in an incubator at 35° C. for 18-24 hours of incubation. After the preparation of strains was completed, an appropriate amount of solid plate culture was collected, resuspended in physiological saline, and mixed well. The bacterial suspension was adjusted to a suitable turbidity using a turbidity meter, containing approximately 1×10^8 cfu/mL bacteria. Then the bacterial suspension with the adjusted turbidity was diluted to a bacterial concentration of 5×10^5 cfu/ml using the culture medium for measurement, to complete the preparation of the inoculum solution. 198 μL of the inoculum solution was inoculated into a 96-well plate, and then added with 2 μL of a 100× high-concentration working solution of the compound. Then the 96-well plate was placed at 35° C. for 18 to 24 hours of incubation.

[3] = recombinant P. aeruginosa LpxC 5 nM, substrate 10 μM, 25° C., 120 minutes, read-out: IC50

Structure (SMILES)	IC50 [1] [nM]	MIC [2] [µg/mL]	IC50 [1, 3] [nM]
C[C@H](O)c1nccn1Cc1cc(-c2ccc(C#Cc3ccc(CN4CCOC(C(=O)O)C4)cc3)cc2)on1 (stereo partly drawn) [Example 47, 4-(4-((4-(3-((2-((S)-1-hydroxyethyl)-1H-imidazol-1-yl)methyl)isoxazol-5-yl)phenyl)ethynyl)benzyl)morpholin-2-carboxylic acid]	11.1	8 (≈ 15.6 µM)	
C[C@H](O)c1nccn1Cc1cc(-c2ccc(C#Cc3ccc(C(=O)N4CCC(O)CC4)cc3)cc2)on1 [Example 67, (S)-(4-((4-(3-((2-(1-hydroxy-ethyl)-1H-imidazol-1-yl)methyl)isoxazol-5-yl)phenyl)ethynyl)phenyl)(4-hydroxypiperidin-1-yl)methanone]		2 (≈ 4.03 µM)	10.4
C[C@H](O)c1nccn1Cc1cc(-c2ccc(C#Cc3ccc(C(=O)N4CCC(C(=O)O)CC4)cc3)cc2)on1 [Example 69, (S)-1-(4-((4-(3-((2-(1-hydroxyethyl)-1H-imidazol-1-yl)methyl)isoxazol-5-yl)phenyl)ethynyl)benzoyl)piperidin-4-carboxylic acid]		8 (≈ 15.3 µM)	10.4
CCN(CC)CCNC(=O)c1ccc(C#Cc2ccc(-c3cc(Cn4ccnc4[C@H](C)O)no3)cc2)cc1 [Example 70, (S)-N-(2-(diethylamino)ethyl)-4-((4-(3-((2-(1-hydroxyethyl)-1H-imidazol-1-yl)methyl)isoxazol-5-yl)phenyl)ethynyl) benzamide]		8 (≈ 15.6 µM)	12.9
C[C@H](O)c1nccn1Cc1cc(-c2ccc(C#Cc3ccc(C(=O)NCCN(C)C)cc3)cc2)on1 [Example 71, (S)-N-(2-(dimethylamino)ethyl)-4-((4-(3-((2-(1-hydroxyethyl)-1H-imidazol-1-yl)methyl)isoxazol-5-yl)phenyl)ethynyl) benzamide]		8 (≈ 16.5 µM)	24.2
C[C@H](O)c1nccn1Cc1cc(-c2ccc(C#Cc3ccc(C(=O)NCC(C)(C)O)cc3)cc2)on1 [Example 72, (S)-N-(2-hydroxy-2-methyl-propyl)-4-((4-(3-((2-(1-hydroxyethyl)-1H-imidazol-1-yl)methyl)isoxazol-5-yl)phenyl)ethynyl) benzamide]		8 (≈ 16.5 µM)	26.6
C[C@H](O)c1nccn1Cc1cc(-c2ccc(C#Cc3ccc(C(=O)NCCC(=O)O)cc3)cc2)on1 [Example 73, (S)-3-(4-((4-(3-((2-(1-hydroxyethyl)-1H-imidazol-1-yl)methyl)isoxazol-5-yl)phenyl)ethynyl)benzamido)propanoic acid]		8 (≈ 16.5 µM)	33.1
C[C@H](O)c1nccn1Cc1cc(-c2ccc(C#Cc3ccc(OCC4CCN(C)CC4)cc3)cc2)on1 [Example 76, (S)-1-(1-((5-(4-((4-((1-methylpiperidin-4-yl)methoxy)phenyl)ethynyl)phenyl)isoxazol-3-yl)methyl)-1H-imidazol-2-yl) ethan-1-ol]		8 (≈ 16.1 µM)	12.9
C[C@H](O)c1nccn1Cc1cc(-c2ccc(C#Cc3ccc(CN4CCOC(CC(=O)O)C4)cc3)cc2)on1 (stereo partly drawn) [Example 93, 2-(4-(4-((4-(3-((2-((S)-1-hy-droxyethyl)-1H-imidazol-1-yl)methyl)isoxazol-5-yl)phenyl)ethynyl)benzyl)morpholin-2-yl) acetic acid]		8 (≈ 15.2 µM)	16.2
C[C@H](O)c1nccn1Cc1cc(-c2ccc(C#Cc3ccc(CN4CC(C(=O)O)C4)cc3)cc2)on1 [Example 95, (S)-1-(4-((4-(3-((2-(1-hydroxyethyl)-1H-imidazol-1-yl)methyl)isoxazol-5-yl)phenyl)ethynyl)benzyl)azetidin-3-carboxylic acid]		8 (≈ 16.6 µM)	19.9
C[C@H](O)c1nccn1Cc1cc(-c2ccc(C#Cc3ccc(CN4CCNCC4)cc3)cc2)on1 [Example 96, (S)-1-(1-((5-(4-((4-(piperazin-1-ylmethyl)phenyl)ethynyl)phenyl)isoxazol-3-yl)methyl)-1H-imidazol-2-yl)ethan-1-ol]		4 (≈ 8.55 µM)	15.9
